Experimental data from US8293726B2, “Treatment of cancer and other diseases” (Vianova Labs, Inc., priority 2005, dated 2012).
Where “and” joins values, the source holds several entries; their conditions need not be identical. Equal values may be shown once.

Legend:
[1] = tested on: experimentally induced large B-cell lymphoma; experiment: Therapeutic efficacy in mice with experimentally induced large B-cell lymphoma (blood tests, LDH, body weight, autopsy); assay type: in vivo; set-up: Lymphocytes: unit not given here; conditions: for LDH: blood plasma; for Total protein: blood serum; for Lymphocytes: blood
Experimental: Investigations were carried out on immunocompromised laboratory mice with experimentally-induced large B-cell lymphoma using hematological, immunological, biochemical, anatomical, and cytological methods. Two groups of 15 mice were employed. In the first group, 24-ethyl-cholestane-3β,5α,6α-triol was administered orally daily at a dosage of 5 mg/kg. The second group served as the control. The following parameters of therapeutic efficacy were compared: dynamics of LDH activity in the blood plasma, content of total protein, and general clinical blood test results.
As is seen from Table 2, statistically important differences (P<0.05) between animals with lymphoma and healthy animals were marked by the amount of leukocytes, hemoglobin, by color indication, the absolute number of lymphocytes in blood, as well as the content of total protein in the blood serum and the LDH activity in blood plasma. These changes characterize the presence of disorders in the lymphoid component of blood formation, indicate the presence of intensive cytolysis in the process of carcinogenesis (due to increased LDH), and show the presence of processes suppressing biosynthesis of protein.
The total content of protein in the blood serum and the hemoglobin concentration are increased. At the same time, a decrease in LDH activity in the blood plasma and in the number of lymphocytes was observed (FIG. 5).

[2] = tested on: human tumor cell line: large B-cell lymphoma; experiment: Human tumor cell lines in immunocompromised mice (intraperitoneal, ascitis): lymphoma; assay type: in vivo; conditions: treated mice (4, 2 and 0.8 mg/kg/day orally for 10 days)
Experimental: Immunocompromised mice were used for this experiment. Mice were inbred in a sterile environment and fed ad libitum. Four groups of 40 mice, weighing approximately 20 g each (range: 17-25 g), were used for each tumor type. The human tumor cell lines used were the following: large B-cell lymphoma; squamous-cell carcinoma of the lung; ductal carcinoma breast; and adenocarcinoma of the lung. A suspension of tumor cells was injected in the peritoneum of immunocompromised mice. Following this, mice were examined and weighed daily. After 6-8 days, we observed the development of abdominal carcinomatosis and […]. At day 18, we observed the development of an abundant […], which increased the weight of the mice by approximately 20 g. At that time, mice were divided into four groups of 10. […] Assessment of tumor cell concentration in the […] abdominal metastases were measured on day 18 and every 2 days thereafter. In all mice, prior to treatment, we observed an increase in LDH ESR (>100) and a decrease in the hematocrit. Control (untreated) mice all died between day 21 and day 25 in all tumor types. […] Complete response: Weight (and ascetic) loss and the disappearance of all abdominal metastatic nodules and tumor cells. Partial response: Weight (and ascitic) loss and at least 25% decrease of tumor cell in the […] least 25% decrease in measured abdominal metastatic nodules. […] Progressive disease: When we observed an increase in […] or tumor volume or death of the animal.

[3] = tested on: hormone resistant metastatic prostate cancer; experiment: Patient case: hormone resistant metastatic prostate cancer, PSA; assay type: in vivo, human
Source text: A patient presented with hormone resistant metastatic prostate cancer. They had previously been treated with three courses of chemotherapy (Navelbine+Taxotere, but their PSA was still increasing.

[4] = tested on: poorly differentiated lobular carcinoma of the right breast; experiment: Patient case: stage IV lobular breast carcinoma with liver, spleen and bone metastases; assay type: in vivo, human
Source text: A patient with a past medical history of anemia and mild chronic renal failure due to retroperitoneal fibrosis presented with a stage IV poorly differentiated lobular carcinoma of the right breast and liver, spleen and bone metastases. […] Three days after treatment, we observed a decrease in LDH level from 450 to 204.

uterine cancer stage IIB = experiment: Patient case: recurrent uterine cancer; assay type: in vivo, human; conditions: 60 mg/day, within three months; recurrent 3.2 cm pelvic mass before
Source text: A patient presented with uterine cancer stage IIB. They previously received cisplatin-based chemotherapy and radiotherapy. […] A cervical biopsy confirms the recurrence. […] Within three months, the tumor had disappeared on clinical exam and abdomino-pelvic CT scan.

[5] = tested on: pancreatic adenocarcinoma; experiment: Patient case: pancreatic adenocarcinoma, CA 19-9; assay type: in vivo, human; set-up: CA 19-9: unit not given beside the values
Source text: A diabetic and insulin dependent patient with a past history of lymphoma presented with a 3 cm tumor in the head of pancreas and a suspicion of hepatic metastasis.

[6] = 5 mg/kg orally daily, course of treatment
[7] = first treated group, M (arithmetic mean of 3 animals)
[8] = first treated group, individual animals
[9] = second treated group, M (arithmetic mean of 3 animals)
[10] = second treated group, individual animals
[11] = third treated group, M (arithmetic mean of 4 animals)
[12] = third treated group, individual animals

CC[C@H](CC[C@@H](C)[C@H]1CC[C@H]2[C@@H]3C[C@H](O)[C@@]4(O)C[C@@H](O)CC[C@]4(C)[C@H]3CC[C@]12C)C(C)C [24-ethyl-cholestane-3β,5α,6α-triol]
hemoglobin concentration [1, 6]: increased
number of lymphocytes [1, 6]: decrease
total content of protein in the blood serum [1, 6]: increased
autopsy: liver, kidney and spleen tissues, treated animals with lymphoma vs healthy mice ([1]; 5 mg/kg orally daily, sixteen days): no differences
LDH [1, 7]: 962.00 U/L
LDH [1, 8]: 1056 U/L and 974 U/L and 856 U/L
LDH [1, 9]: 749.7 U/L
LDH [1, 10]: 698 U/L and 753 U/L and 798 U/L
LDH [1, 11]: 673 U/L
LDH [1, 12]: 759 U/L and 583 U/L and 697 U/L and 653 U/L
Total protein [1, 7]: 53.63 g/L
Total protein [1, 8]: 51.5 g/L and 52.6 g/L and 56.8 g/L
Total protein [1, 9]: 54.73 g/L
Total protein [1, 10]: 52.9 g/L and 54.5 g/L and 56.8 g/L
Total protein [1, 11]: 57.625 g/L
Total protein [1, 12]: 56.5 g/l (2×) and 57.8 g/l and 59.7 g/l
Lymphocytes [1, 7]: 9.15
Lymphocytes [1, 9]: 7.523
Lymphocytes [1, 11]: 7.464
LDH level in some animals ([1]; by the sixteenth day of treatment, some animals): reached the level of healthy animals
Body, weight ([1]; day 16, treated vs untreated diseased mice): tendency to a gain in mass
decrease of LDH activity in blood plasma ([1]; diseased mice, 5 mg/kg orally daily, by the sixteenth day of treatment): 42.3%
Body, weight [1, 7]: 18.04 g
neutrophiles/lymphocytes [1, 7]: 0.28
Body, weight [1, 8]: 18.27 g and 17.86 g and 18.00 g
Body, weight [1, 9]: 18.2 g
Body, weight [1, 10]: 18.28 g and 18.36 g and 17.97 g
Body, weight [1, 11]: 18.3775 g
neutrophiles/lymphocytes [1, 11]: 0.3255
Body, weight [1, 12]: 18.53 g and 18.12 g and 18.26 g and 18.60 g
Complete Remission [2]: 80%
Partial Remission [2]: 10%
Progressive Disease [2]: 0%
Stable Disease [2]: 10%
Symptomatic Response [2]: 100%
PSA ([3]; Day 13, 70 mg/day, Day 0 prior to treatment 1958 (nl < 4)): 1590
PSA ([3]; Day 15, 70 mg/day): 1142
PSA ([3]; Day 67, 70 mg/day): 802
PSA ([3]; Day 110, 70 mg/day): 772
CA 125 ([4]; After LC (five months), 60 mg/day, Before LC 125): 69
CA 15-3 ([4]; After LC (five months), 60 mg/day, Before LC 237): 86
renal failure and anemia ([4]; after treatment, 60 mg/day): improved
spleen metastasis on CT scan ([4]; after treatment, 60 mg/day): regressed
total Body MRI ([4]; after treatment, 60 mg/day): complete liver and spleen response
primitive breast mass on ultrasound ([4]; after treatment, regressed from 5): 3 cm
liver enzymes including LDH ([4]; five months after treatment commenced, 60 mg/day): returned to normal
LDH level ([4]; three days after treatment, 60 mg/day, decrease from 450): 204
tumor on clinical exam and abdomino-pelvic CT scan (uterine cancer stage IIB): disappeared
CA 19-9 ([5]; Day 1, 50 mg/day, Day 0 prior to treatment 884 (nl < 37)): 793
CA 19-9 ([5]; Day 32, 50 mg/day): 675
CA 19-9 ([5]; Day 59, 50 mg/day (dose then increased to 60 mg/day)): 1127
CA 19-9 ([5]; Day 128, 60 mg/day): 545
CT scan of the abdomen, pancreas ([5]; Day 200 of therapy, 3 cm tumor in the head of pancreas before): no masses seen
